Data published in patent publication US11760717B2, “Resin composition and fluidity improvement method” (Osaka Gas Chemicals Co., Ltd., priority 2020, dated 2023).

What was measured:
[1] = 5% mass reduction temperature (TG-DTA); assay type: physicochemical; conditions: nitrogen atmosphere, 50 to 400° C., heating rate 10° C./min
Procedure: (5% Mass Reduction Temperature)
The temperature, at which the mass of the sample is reduced by 5% by mass, was measured using a Thermogravimeter-Differential Thermal Analyzer (TG-DTA) (manufactured by PerkinElmer, Inc., “TGA-4000”) in a nitrogen atmosphere, under the condition of a measurement temperature range of 50 to 400° C. with a heating rate of 10° C./min.

[2] = Visual confirmation of extruded thread shaped sample (compatibility of resin and additive); assay type: physicochemical; conditions: thread shaped sample extruded from the resin composition, visually confirmed
Procedure: When a thread shaped sample obtained by extruding the resin composition was visually confirmed, the resin and the additive were compatible with each other without becoming cloudy in each of samples.
For each of Examples, the PA66 as a resin and AAD-FL as an additive were kneaded at a ratio shown in Table 3 to prepare a resin composition. Kneading was performed using a twin-screw extruder (manufactured by Parker Corporation, “HK25D”, L/D=41, screw diameter: 25 mm) under the conditions of a temperature of 270° C., a screw rotation speed of 150 rpm, and a discharge amount of 6 kg/hour. When a thread shaped sample obtained by extruding the resin composition was visually confirmed, the resin and the additive were compatible with each other without becoming cloudy in each of samples in Examples 4 to 6, as in Example 3.

| SMILES | 5% mass reduction temperature [1] [°C] | compatibility of resin and additive [2] |
| --- | --- | --- |
| CN(C)C(=O)CCC1(CCC(=O)N(C)C)c2ccccc2-c2ccccc21 [DMAA-FL, 9,9-bis[2-(N,N-dimethylcarbamoyl)ethyl]fluorene] | 318 |  |
| CCN(CC)C(=O)CCC1(CCC(=O)N(CC)CC)c2ccccc2-c2ccccc21 [DEAA-FL, 9,9-bis[2-(N,N-diethylcarbamoyl)ethyl]fluorene] | 294 |  |
| CC(C)NC(=O)CCC1(CCC(=O)NC(C)C)c2ccccc2-c2ccccc21 [NIPAM-FL, 9,9-bis[2-(N-isopropylcarbamoyl)ethyl]fluorene] | 257 |  |
| NC(=O)CCC1(CCC(N)=O)c2ccccc2-c2ccccc21 [AAD-FL, 9,9-bis(2-carbamoylethyl)fluorene] | 320 | compatible with the resin |
